Source: ChEMBL document CHEMBL5352391, “New structural classes of antimalarials” (Eur J Med Chem, 2022)
In brackets after ≈: the same amount, converted by molar mass.

How the values were obtained:
Plasmodium berghei [1] = experiment: Antimalarial activity against Plasmodium berghei ANKA infected in mouse assessed as reduction in parasitemia by measuring effective dose at administrated orally for 4 days by flow cytometry analysis; format: functional; conditions: 96 h, route po, time 4 day
Plasmodium falciparum [2] = experiment: Antiplasmodial activity against Plasmodium falciparum K1 infected in human erythrocyte assessed as inhibition of parasite growth incubated for 72 hrs by [3H]-hypoxanthine incorporation based liquid scintillation counting method; format: functional, organism-based
[3] = Retention time of the compound by HPLC-MS analysis; format: physicochemical
Plasmodium falciparum [4] = experiment: Antiplasmodial activity against mixture of chloroquine resistant Plasmodium falciparum RKL 303-chloroquine sensitive Plasmodium falciparum 3D7 infected in human erythrocyte assessed as inhibition of parasite growth incubated for 48 hrs by Giemsa staining based microscopic analysis; format: functional, organism-based
Plasmodium berghei [5] = experiment: Antimalarial activity against Plasmodium berghei ANKA infected in Swiss albino mouse assessed as reduction in parasitemia at 50 micromol/kg,po administrated for 4 days by Giemsa staining based microscopic analysis; format: functional; design: scale not given: the % may be the effect or the level left; conditions: dose 50 µmol/kg, time 4 day
Plasmodium falciparum [6] = experiment: Antiplasmodial activity against chloroquine resistant Plasmodium falciparum RKL9 infected in human erythrocyte assessed as inhibition of parasite growth incubated for 24 hrs by two fold serial dilution assay; format: functional, organism-based
Plasmodium falciparum [7] = experiment: Antiplasmodial activity against chloroquine sensitive Plasmodium falciparum 3D7 assessed as inhibition of parasite growth incubated for 48 hrs by SYBR green I dye based fluorescence assay; format: functional, organism-based; conditions: 3D7, 48 h
Plasmodium falciparum [8] = experiment: Antiplasmodial activity against chloroquine resistant Plasmodium falciparum W2 assessed as inhibition of parasite growth incubated for 48 hrs by SYBR green I dye based fluorescence assay; format: functional, organism-based; conditions: W2, 48 h
[9] = Selectivity index, ratio of CC50 for cytotoxicity against human HepG2 cells by MTT assay to IC50 for antiplasmodial activity against chloroquine resistant Plasmodium falciparum W2 by SYBR green I dye based fluorescence assay; format: toxicity, cell-based; conditions: read-out: Ratio CC50/IC50
Plasmodium falciparum [10] = experiment: Antiplasmodial activity against Plasmodium falciparum 3D7 assessed as inhibition of parasite growth incubated for 72 hrs by LDH assay based spectrofluorometric analysis; format: functional, organism-based; conditions: 3D7, 72 h
Plasmodium falciparum [11] = experiment: Antiplasmodial activity against chloroquine resistant Plasmodium falciparum Dd2 assessed as inhibition of parasite growth incubated for 72 hrs by LDH assay based spectrofluorometric analysis; format: functional, organism-based; conditions: Dd2, 72 h
Plasmodium falciparum [12] = experiment: Antiplasmodial activity against chloroquine resistant Plasmodium falciparum K14 assessed as inhibition of parasite growth incubated for 48 hrs by [3H]-hypoxanthine incorporation based microbeta scintillation counting method; format: functional, organism-based
Plasmodium falciparum [13] = experiment: Antiplasmodial activity against Plasmodium falciparum TM90-C2A assessed as inhibition of parasite growth incubated for 72 hrs by SYBR Green I dye based fluorescence assay; format: functional, organism-based
Plasmodium falciparum [14] = experiment: Antiplasmodial activity against Plasmodium falciparum TM90-C2B assessed as inhibition of parasite growth incubated for 72 hrs by SYBR Green I dye based fluorescence assay; format: functional, organism-based
Plasmodium falciparum [15] = experiment: Antiplasmodial activity against Plasmodium falciparum TM91-C23 assessed as inhibition of parasite growth incubated for 72 hrs by SYBR Green I dye based fluorescence assay; format: functional, organism-based; conditions: TM91-C23, 72 h
Plasmodium falciparum [16] = experiment: Antiplasmodial activity against Plasmodium falciparum W2 assessed as inhibition of parasite growth incubated for 72 hrs by SYBR Green I dye based fluorescence assay; format: functional, organism-based; conditions: W2, 72 h
Plasmodium falciparum [17] = experiment: Antimalarial activity against Plasmodium falciparum 3D7 assessed as reduction of parasite growth at 25 uM incubated for 96 hrs by SYBR green I dye based fluorescence assay relative to control; format: functional; design: scale not given: the % may be the effect or the level left
Plasmodium falciparum [18] = experiment: Antimalarial activity against Plasmodium falciparum 3D7 assessed as reduction of parasite growth incubated for 96 hrs by SYBR green I dye based fluorescence assay; format: functional, organism-based; conditions: 3D7, 96 h
Plasmodium vinckei [19] = experiment: Antimalarial activity against Plasmodium vinckei infected in Swiss OF1 mouse assessed as reduction of parasitaemia at 10 mg/kg,po administrated for four consecutive days and measured on day 5 by Giemsa staining based microscopic analysis; format: functional; design: scale not given: the % may be the effect or the level left; conditions: time 5 day
Plasmodium vinckei [20] = experiment: Antimalarial activity against Plasmodium vinckei infected in Swiss OF1 mouse assessed as reduction in parasite growth by measuring its effective dose administrated orally for four consecutive days and measured on day 5 by Giemsa staining based microscopic analysis; format: functional; conditions: 120 h, route po, time 5 day
[21] = Cytotoxicity against human HepG2 cells assessed as reduction in cell viability incubated for 72 hrs by MTT assay; format: toxicity, cell-based
Plasmodium falciparum [22] = experiment: Antiplasmodial activity against erythrocytic stage of Plasmodium falciparum NF54 assessed as reduction of parasite growth incubated for 48 hrs by [3H]-hypoxanthine incorporation based beta-plate liquid scintillation counting method; format: functional, organism-based
Plasmodium falciparum [23] = experiment: Antiplasmodial activity against erythrocytic stage of Plasmodium falciparum 3D7 assessed as reduction of parasite growth incubated for 100 hrs by SYBR Green dye based fluorescence assay; format: functional, organism-based; conditions: 3D7, 100 h
Plasmodium falciparum [24] = experiment: Antiplasmodial activity against erythrocytic stage of Plasmodium falciparum K1 assessed as reduction of parasite growth incubated for 48 hrs by [3H]-hypoxanthine incorporation based beta-plate liquid scintillation counting method; format: functional, organism-based
[25] = Selectivity index, ratio of CC50 for cytotoxicity against human HepG2 cells by MTT assay to EC50 for antiplasmodial activity against erythrocytic stage of Plasmodium falciparum K1 by [3H]-hypoxanthine incorporation based liquid scintillation counting method; format: toxicity, cell-based; conditions: read-out: Ratio CC50/EC50
[26] = Selectivity index, ratio of CC50 for cytotoxicity against human HepG2 cells by MTT assay to EC50 for antiplasmodial activity against erythrocytic stage of Plasmodium falciparum NF54 by [3H]-hypoxanthine incorporation based liquid scintillation counting method; format: toxicity, cell-based; conditions: read-out: Ratio CC50/EC50
Falcipain 2 = target: T1, Falcipain 2 (Plasmodium falciparum, UniProt Q9N6S8); experiment: Inhibition of Plasmodium falciparum recombinant His-tagged falcipain-2 expressed in Escherichia coli assessed as inhibition constant using Cbz-Phe-Arg-AMC as substrate by fluorescence spectrophotometer assay
T1 sequence (Q9N6S8 whole entry): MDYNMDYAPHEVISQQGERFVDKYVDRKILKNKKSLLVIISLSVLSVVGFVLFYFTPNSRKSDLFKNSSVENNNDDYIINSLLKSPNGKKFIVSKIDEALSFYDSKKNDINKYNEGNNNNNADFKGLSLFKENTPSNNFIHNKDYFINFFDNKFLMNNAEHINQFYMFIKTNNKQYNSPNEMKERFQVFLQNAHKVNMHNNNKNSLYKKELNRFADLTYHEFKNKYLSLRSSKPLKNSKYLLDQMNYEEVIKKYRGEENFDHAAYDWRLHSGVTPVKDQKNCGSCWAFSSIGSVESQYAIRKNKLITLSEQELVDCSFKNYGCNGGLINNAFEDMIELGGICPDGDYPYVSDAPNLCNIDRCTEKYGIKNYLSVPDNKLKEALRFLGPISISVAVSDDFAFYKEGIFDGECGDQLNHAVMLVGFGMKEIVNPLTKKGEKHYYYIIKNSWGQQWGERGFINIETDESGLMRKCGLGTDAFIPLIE

Plasmodium falciparum [27] = experiment: Antiplasmodial activity against chloroquine resistant Plasmodium falciparum K1 infected in human RBC assessed as inhibition of parasite growth incubated for 48 hrs by optical microscopy analysis; format: functional, organism-based; conditions: K1, Erythrocyte

Q: For `CC(=O)N1CCN(c2ccc(CN(C(=O)/C=C/c3ccc(C(F)(F)F)cc3)[C@@H](Cc3ccccc3)C(=O)N3CCN(Cc4ccc(N(C)CCO)cc4)CC3)cc2)CC1`, which ED90 (Plasmodium berghei [1]) is on record?
A: 54.4 mg/kg

Q: With `C=C(C)[C@H](O)[C@@H](O)C[C@@H](C)C1=C2C[C@H](O)[C@H]3[C@@]4(C)CCC(=O)C(C)(C)[C@@H]4CC[C@]3(C)[C@@]2(C)CC1` as the molecule, how does the IC50 (Plasmodium falciparum [2]) read?
A: 6980 nM

Q: What about the Retention_time [3] of the same molecule?
A: 23 min

Q: With `COc1ccc(/C=C/C(=O)c2ccc(-n3cnc4ccccc43)cc2)c(OC)c1` as the molecule, how does the IC50 (Plasmodium falciparum [4]) read?
A: 1.1 µg/mL (≈ 2.86 µM)

Q: With `O=C(O)c1cn(-c2ccc(Cl)cc2)nc1-c1ccccc1` as the molecule, how does the Activity (Plasmodium berghei [5]) read?
A: 97%

Q: And the IC50 (Plasmodium falciparum [6])?
A: 33 nM

Q: Which results are given for `c1cc(CNCCCN2CCN(CCCNCc3cccc(-c4nc5ccccc5n5cccc45)c3)CC2)cc(-c2nc3ccccc3n3cccc23)c1`?
A: IC50 (Plasmodium falciparum [7]): 370 nM; IC50 (Plasmodium falciparum [8]): 50 nM; selectivity ratio [9]: 40.6

Q: What does the source list for `C/C1=C\[C@H](C)[C@@H](O)C[C@@H](O)/C(C)=C/[C@H](C)C[C@@H](C)CC[C@@H]([C@@H](C)C(=O)O)OC(=O)[C@@H](C)C1`?
A: IC50 (Plasmodium falciparum [10]): 128 nM; IC50 (Plasmodium falciparum [11]): 180 nM

Q: For `COc1ccc(N2C(=O)[C@@H](Oc3ccc(Cl)cc3Cl)[C@H]2c2ccc(NC(=O)N3CCOCC3)cc2)cc1`, which IC50 (Plasmodium falciparum [12]) is on record?
A: 21000 nM

Q: With `C/C1=C\C(=O)O[C@@H](C(C)(C)C)CCC[C@@H](O)CCC[C@H](O)CCC[C@H](O)CCC[C@@H](O)C[C@H](O)C[C@@H](O)CCC[C@H](O)CCC[C@H](O)C[C@@H](O)CCCCC1` as the molecule, how does the IC50 (Plasmodium falciparum [13]) read?
A: 80 nM

Q: What about the IC50 (Plasmodium falciparum [14]) of the same molecule?
A: 90 nM

Q: And the IC50 (Plasmodium falciparum [15])?
A: 270 nM

Q: And the IC50 (Plasmodium falciparum [16])?
A: 140 nM

Q: For `COC(=O)[C@H](Cc1ccc(O)c(-c2ccc(F)cc2)c1)NC(=O)C(=O)c1c[nH]c2ccccc12`, which Activity (Plasmodium falciparum [17]) is on record?
A: 60%

Q: What about the EC50 (Plasmodium falciparum [18]) of the same molecule?
A: 1300 nM

Q: For `CO/N=C(/N)c1ccc(-n2cc(-c3cccc(/C(N)=N\OC)c3)nn2)cc1`, which Activity (Plasmodium vinckei [19]) is on record?
A: 100%

Q: What about the ED50 (Plasmodium vinckei [20]) of the same molecule?
A: 5 mg/kg

Q: For `CC1(C)C2CC=C(CC(=O)Oc3ccnc4cc(Cl)ccc34)[C@@H]1C2`, which CC50 at 72 h [21] is on record?
A: > 160000 nM

Q: And the EC50 (Plasmodium falciparum [22])?
A: 23300 nM

Q: What about the EC50 (Plasmodium falciparum [23]) of the same molecule?
A: > 50000 nM

Q: What about the EC50 (Plasmodium falciparum [24]) of the same molecule?
A: 164 nM

Q: And the selectivity ratio [25]?
A: > 976

Q: What about the selectivity ratio [26] of the same molecule?
A: 0.7

Q: Which Ki (Falcipain 2) does the source give for `N=C(NC(=O)OCc1ccccc1)NC(=O)c1ccc(C(=O)OCc2ccccc2)o1` here?
A: 2690 nM

Q: Which IC50 (Plasmodium falciparum [27]) does the source give for `c1ccc(CCC2(CCc3ccccc3)OOC(CCc3ccccc3)(CCc3ccccc3)OO2)cc1` here?
A: 1600 nM
